# Reference: US9371521B2, “Substituted pyrazinedithiol reducing agents” (Wisconsin Alumni Research Foundation, priority 2014, dated 2016)
# Several values for one entry are separate records, joined by “and”; a condition that tells them apart may be missing. Equal values may be shown once. Read-outs that look alike come from different tables or passages of the source.
# Assays:
# [1] = literature value; cited from earlier work
# [2] = literature value [37]; cited from earlier work
# [3] = Reduction kinetics on oxidized βME; format: physicochemical; conditions: for kobs for reduction of βMEox: 5 mM each
# [4] = molecular target: T1, papain-Cys25-S—S—CH3 (Carica papaya, UniProt P00784); assay: Reactivation of papain (reduction of active-site mixed disulfide); format: biochemical; conditions: for kobs for reduction of papain-Cys25-S-S-CH3: 0.10 M imidazole-HCl buffer, pH 7.0, EDTA 2 mM
# T1 construct: Papain (lyophilized powder from papaya latex); purchased Sigma-Aldrich (St. Louis, Mo.); host or cells: papaya latex (natural source)
# T1 sequence (P00784 134-345): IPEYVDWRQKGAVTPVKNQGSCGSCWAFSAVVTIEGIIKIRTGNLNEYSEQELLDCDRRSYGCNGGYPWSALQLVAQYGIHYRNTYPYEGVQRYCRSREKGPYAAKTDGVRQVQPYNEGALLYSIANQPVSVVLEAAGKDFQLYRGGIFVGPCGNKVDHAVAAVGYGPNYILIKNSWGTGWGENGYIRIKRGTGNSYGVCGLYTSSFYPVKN
# Protocol: (§1) Commercial reagents were used without further purification. Dithiothreitol (DTT) was from Research Products International (Mt. Prospect, Ill.). […].
# Papain was inactivated by forming a mixed disulfide upon treatment of its active-site cysteine (Cys25) with S-methyl methanethiosulfonate following a procedure reported previously. A 1.25 mL solution of papain-Cys25-S—S—CH3 (4.4×10^−6 M) in a degassed 0.10 M imidazole-HCl buffer, pH 7.0, containing EDTA (2 mM) was placed in a 1.5-mL LoBind Eppendorf tube. At time t=0, 10 μL of a 1 mM stock solution of BMMP was added, and a timer was started. […] A unit of protein is defined as the amount of enzyme required to produce 4-nitroaniline at a rate of 1 μmol/min. The units of active papain at each time point were calculated by using an extinction coefficient for 4-nitroaniline of ε=8,800 M^−1cm^−1 at 410 nm. […] Y=enzymatic activity (%) at any time point was determined by dividing the number of active units of enzyme by the possible number of units in the solution, and plotted in FIG. 2A. To determine the value of the second-order rate constant (kobs) for the reducing agents, the second order rate equation (eq 4) was transformed into eq 5, which was fitted to the data with the program Prism 5.0.
# [5] = molecular target: T2, creatine kinase-Cys283-S-S-G (Oryctolagus cuniculus, UniProt P00563); assay: Reactivation of creatine kinase (reduction of mixed disulfide with glutathione); format: biochemical, rabbit; conditions: for kobs for reduction of creatine kinase-Cys283-S-S-G: 0.10 M imidazole-HCl buffer, pH 7.0, EDTA 2 mM
# T2 construct: creatine kinase (lyophilized powder from rabbit muscle); purchased Sigma-Aldrich (St. Louis, Mo.); host or cells: rabbit muscle (natural source)
# Protocol: as §1
# [21, 23] Enzymatic activity (%) at particular time points was calculated by dividing the number of active units of enzyme by the possible number of units in solution, and was plotted in FIG. 2B. Values of kobs (Table 2) were determined using eq.
# [6] = Determination of BMMP solubility in buffered water (1H NMR); format: physicochemical; conditions: aqueous buffer, thermodynamic from solid; 50 mM sodium phosphate buffer, pH 7.0
# Protocol: A 20 mM stock solution of 2-butyne-1,4-diol (an ^1H NMR standard) was prepared in 50 mM sodium phosphate buffer, pH 7.0. BMMP was added to a solution containing 1 mL of this buffer and 0.1 mL of D2O until the solution was saturated completely. The mixture was sonicated to ensure complete dissolution and filtered into an NMR tube, and its spectrum was acquired. The solubility of BMMP was determined to be (64±14) mM by integration of the ^1H NMR peak areas of the aryl CH and methylene CH2SH protons for BMMP and the CH2OH peak for 2-butyne-1,4-diol.
# [7] = Reduction potential from equilibrium reaction with oxidized DTT (HPLC, Nernst equation); format: physicochemical; conditions: for Keq of equilibrium reaction with DTTox / Disulfide E°′ (reduction potential of oxidized form): 50 mM potassium phosphate buffer, pH 7.0, EDTA 2 mM, 24 h; for Disulfide E°′ (reduction potential of oxidized form): assuming −0.327 V for DTT, this work
# [8] = Determination of thiol pKa values (pH titration monitored by UV absorbance at 238 nm); format: physicochemical
# Protocol: Thiol pKa values were determined using a Varian Cary 60 UV-Vis spectrophotometer. Kinetic studies on proteins were carried out using a Varian Cary 400 Bio UV-Vis spectrometer with a Cary temperature controller at the Biophysics Instrumentation Facility at Madison (BIF). All NMR spectra were acquired at ambient temperature with a Bruker DMX-400 Avance spectrometer and a Bruker Avance III 500ii with cyroprobe spectrometer at the National Magnetic Resonance Facility at Madison (NMRFAM), and were referenced to TMS or residual protic solvent.
# The thiol pKa values are determined by following a procedure reported previously that exploits the elevated absorbance of the deprotonated thiolate at 238 nm.
# For BMMP determination, in eq 1, CT is the total thiol concentration, εSH^SH is the extinction coefficient of the doubly protonated form of BMMP, εSH^S- is the extinction coefficient of the singly protonated form of BMMP, and εS-^S- is the extinction coefficient of the doubly deprotonated form of BMMP.
# For comparison, the thiol pKa values for DMH were determined in a similar fashion.
# [9] = cited from earlier work
# [10] = molecular target: T2, creatine kinase-Cys283-S-S-G; conditions: literature [23]; cited from earlier work
# [11] = pH 5.0, 50 mM sodium acetate buffer
# [12] = pH 7.0, 50 mM potassium phosphate buffer
# [13] = Thiol pKa (second value, in parentheses)
# T2 sequence (P00563 whole entry): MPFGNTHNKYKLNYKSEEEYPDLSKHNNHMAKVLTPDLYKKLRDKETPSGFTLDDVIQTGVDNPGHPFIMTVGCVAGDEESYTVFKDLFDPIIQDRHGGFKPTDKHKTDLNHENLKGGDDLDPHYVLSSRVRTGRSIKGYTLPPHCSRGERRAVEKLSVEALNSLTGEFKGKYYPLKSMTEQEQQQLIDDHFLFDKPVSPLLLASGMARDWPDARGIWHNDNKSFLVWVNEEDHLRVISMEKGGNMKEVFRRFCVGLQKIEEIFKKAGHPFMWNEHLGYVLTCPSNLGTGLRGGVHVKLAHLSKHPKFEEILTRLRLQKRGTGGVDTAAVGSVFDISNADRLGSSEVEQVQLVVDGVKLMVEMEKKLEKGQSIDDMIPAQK
structure (smiles),measurement,setting,value
OC(CS)[C@H](O)CS (mixture of isomers),Disulfide E°′ (reduction potential of oxidized form),[1],−0.327 V^b
"Cc1cnc(C)cn1 [2,5-dimethylpyrazine]",pKa of the conjugate acid,[2],2.1
"SCc1nccnc1CS [BMMP, 2,3-bis(mercaptomethyl)pyrazine]",Observed rate of reduction of βMEox at pH 5.0 compared with DTT at pH 7.0,[3]; BMMP pH 5.0 vs DTT pH 7.0,comparable
same,"kobs^BMMP/kobs^DTBA, reduction of βMEox",[3]; pH 5.0,3.6 and 4
same,"kobs^BMMP/kobs^DTT, reduction of βMEox",[3]; pH 5.0,14.1 and 14
same,kobs for reduction of βMEox,[3]; [11],0.0183 ± 0.0007 M⁻¹ s⁻¹
same,"kobs^BMMP/kobs^DMH, reduction of βMEox",[3]; pH 7.0,1.8
same,"kobs^BMMP/kobs^DTBA, reduction of βMEox",[3]; pH 7.0,3.2 and 3
same,"kobs^BMMP/kobs^DTT, reduction of βMEox",[3]; pH 7.0,11.4 and 11
same,kobs for reduction of βMEox,[3]; [12],1.02 ± 0.07 M⁻¹ s⁻¹
same,kobs for reduction of papain-Cys25-S-S-CH3,[4],1139 ± 62 M⁻¹ s⁻¹
same,"kobs^BMMP/kobs^DTT, reduction of papain Cys25-S—S—CH3",[4]; pH 7.0,13.1 and 13
same,kobs for reduction of creatine kinase-Cys283-S-S-G,[5],476 ± 34 M⁻¹ s⁻¹
same,"kobs^BMMP/kobs^DTBA, reduction of creatine kinase Cys283-S—S-glutathione",[5]; pH 7.0,6.8 and 7
same,"kobs^BMMP/kobs^DTT, reduction of creatine kinase Cys283-S—S-glutathione",[5]; pH 7.0,5.8 and 6
same,solubility,[6],64 ± 14 mM
same,Keq of equilibrium reaction with DTTox,[7],0.137±0.036
same,Disulfide E°′ (reduction potential of oxidized form),[7],−0.301±0.003 V
same,Free energy by which equilibrium favors reduced BMMP and oxidized DTT,[7]; reduced BMMP + oxidized DTT vs oxidized BMMP + reduced DTT,-1.2 kcal/mol
"CN(C(=O)CS)N(C)C(=O)CS [DMH, N,N′-dimethyl-N,N′ bis(mercaptoacetyl)hydrazine, reference compound]",Rate of reduction of βMEox compared with other dithiols,[3]; pH 7.0,faster than did DTT or DTBA but slower than did BMMP
same,kobs for reduction of βMEox,[3]; [12],0.56 ± 0.04 M⁻¹ s⁻¹
same,pKa,"[8]; Thiol pKa (first, lower value)",8 ± 0.2
same,pKa,[8]; [13],9.1 ± 0.1
same,"Thiol pKa (first, lower value)",[9]; literature value,7.6
same,"Thiol pKa (second value, in parentheses)",[9]; literature value,8.9
same,Keq of equilibrium reaction with DTTox,[7],0.0065±0.0020
same,Disulfide E°′ (reduction potential of oxidized form),[7],−0.262±0.004 V and −0.262±0.003 V
"N[C@H](CS)CCS [DTBA, dithiobutylamine, reference compound]",kobs for reduction of βMEox,[3]; [11],0.0051 ± 0.0004 M⁻¹ s⁻¹
same,kobs for reduction of βMEox,[3]; [12],0.32 ± 0.02 M⁻¹ s⁻¹
same,kobs for reduction of papain-Cys25-S-S-CH3,[4],950 ± 51 M⁻¹ s⁻¹
same,Rate of reduction of creatine kinase mixed disulfide compared with DTT,[10],comparable to that of DTT
same,kobs for reduction of creatine kinase-Cys283-S-S-G,[5],70 ± 2 M⁻¹ s⁻¹
"O[C@H](CS)[C@H](O)CS [DTT, dithiothreitol, reference compound]",kobs for reduction of βMEox,[3]; [11],0.0013 ± 0.0001 M⁻¹ s⁻¹
same,kobs for reduction of βMEox,[3]; [12],0.090 ± 0.005 M⁻¹ s⁻¹
same,Fraction in the reactive thiolate form,[9]; neutral pH,less than 1%
same,Disulfide E°′ (reduction potential of oxidized form),[1],−0.327 V
same,kobs for reduction of papain-Cys25-S-S-CH3,[4],87 ± 3 M⁻¹ s⁻¹
same,kobs for reduction of creatine kinase-Cys283-S-S-G,[5],82 ± 3 M⁻¹ s⁻¹
CN(C(=O)CS)N(C)C(=O)CS [drawing 5],"Thiol pKa (first, lower value)",[8],8.0 ± 0.2
same,"Thiol pKa (second value, in parentheses)",[8],9.1 ± 0.1
same,Disulfide E°′ (reduction potential of oxidized form),[7],−0.262 ± 0.004 V^c
N[C@H](CS)CCS [drawing 6],Disulfide E°′ (reduction potential of oxidized form),[1],−0.317 V^d
SCc1nccnc1CS [drawing 7],pKa,"[8]; Thiol pKa (first, lower value)",7.6 ± 0.1
same,pKa,[8]; [13],9
same,Disulfide E°′ (reduction potential of oxidized form),[7],−0.301 ± 0.003 V^c
